The values below come from the CATMoS acute toxicity set (Mansouri et al. 2021).

SMILES strings stand for the structures.

The data set can be described thus: GHS categories as the set defines them, by LD50: 1 up to 5, 2 up to 50, 3 up to 300, 4 up to 2000, 5 above 2000 mg/kg. The note with it: rat; in vivo; po.
`NC(=O)Nc1ccc(Cl)c(Cl)c1` came in with a GHS category of 4. As for `O=C(Nc1ccc2[nH]c(=O)[nH]c2c1)c1cc2ccccc2c(N=Nc2cc(Cl)ccc2Cl)c1O`, the figure is 5; as for `COc1ccc2c(c1)CCN(c1ccccc1)C2c1cccc(Cl)c1` (configuration not stated), 4. To `S=P(Oc1ccccc1)(Oc1ccccc1)Oc1ccccc1` belongs 5; to `CCC(CO)(CO)C(=O)O`, 5. To `CC(=O)OC1CN(C)C(=O)N1c1cc(C(C)(C)C)no1` (configuration not stated) belongs 4; to `CC(=O)Oc1ccc(C(c2ccc(OS(=O)(=O)O)cc2)c2ccccn2)cc1` (configuration not stated), 5.

`COc1cc(OC)nc(NC(=O)NS(=O)(=O)c2ncccc2C(F)(F)F)n1` showed a GHS category of 5. Compound `CCOC[C@H]1CO[C@@](Cn2cncn2)(c2cc3ccccc3o2)O1` had a GHS category of 4.

Turning to `CCCC(=O)c1ccc2c(c1)OC(C)(C)C(=O)N2`, the GHS category was 5. To `COc1cc(OC)c2oc(C3(Cn4cncn4)OCCO3)cc2c1` belongs 4; to `CCN(CCCSc1nnnn1C)C(=O)C1CCCC1`, 4. To `COCCOC(=O)C(=O)Nc1nc(-c2ccccc2)cs1` belongs 5; to `CCCCCCCCCCCC(=O)OC`, 5; to `COC12CC(COC3=CC(=O)CC3)CN(C)C1Cc1cn(C(C)(C)C)c3cccc2c13` (configuration not stated), 4.

For the compound `C=C(C)C(=O)NCCC[N+](C)(C)C`, the GHS category was 5.

Turning to `CC1COC(Cn2cncn2)(c2cc3cc(Cl)cc(Cl)c3o2)O1` (configuration not stated), the GHS category is 4. Take `CC/C=C\CCOC(=O)CC`: the GHS category is listed as 5. To `CC1CC(OC(=O)COc2ccc(F)cc2)CC(C)(C)C1` (configuration not stated) belongs 5; to `CC(=O)OC1CN(C)C(=O)N1c1cc(C(C)(C)C)on1` (configuration not stated), 4. To `CC(=O)CCCC(C)CCC=C(C)C` (configuration not stated) belongs 5; to `COC(=O)c1ccccc1S(=O)(=O)NC(=O)N(C)c1nc(C)nc(OC)n1`, 5.

As for `Nc1c(Br)cc([N+](=O)[O-])cc1Br`, the GHS category came out at 4.

Consider `COc1ccc(C(=O)c2cccc(C)c2)cc1C`, for which the GHS category was found to be 5. As for `CC(C)(C)c1ccc(OC(=O)C2CCC(CN=C(N)N)CC2)cc1` (configuration not stated), the figure is 2; as for `C=C(C)CCO`, 5; as for `CCOS(=O)(=O)c1cc(C(C)(C)C)cc2cc(C(C)(C)C)ccc12`, 5. In turn, `CS(=O)(=O)c1ccc([C@@H](O)[C@@H](CO)NC(=O)C(Cl)Cl)cc1` registered a GHS category of 5. To `CCCCCCCCCCCCCCCCCC(=O)OC` belongs 5; to `CC(C)[N+](C)(CCC(C(N)=O)(c1ccccc1)c1ccccc1)C(C)C`, 5; to `O=[N+]([O-])c1ccc(OP(=S)(Oc2ccc([N+](=O)[O-])cc2)Oc2ccc([N+](=O)[O-])cc2)cc1`, 5. As for `CN(C)c1ccc(C=Nc2ccccc2C(=O)O)cc1`, the figure is 4; as for `COC[C@@H]1CO[C@@](Cn2ccnc2)(c2cc3cc(Cl)cc(Cl)c3o2)O1`, 4; as for `C/C=C(\C)C(=O)OC/C=C(\C)CCC=C(C)C`, 5. To `Oc1ccc(OCc2ccccc2)cc1` belongs 5; to `CC(C)=CCC(C#N)(CCN(C)C)c1cccc2ccccc12` (configuration not stated), 4. `O=C(O)c1nc(C(Cl)(Cl)Cl)n(-c2ccc(Cl)cc2Cl)n1`: the GHS category came out at 5. As for `C[N+](C)(CCO)CC(O)C[N+](C)(C)CCO`, the figure is 4; as for `COc1cc(/N=N/c2c(Br)cc([N+](=O)[O-])cc2[N+](=O)[O-])c(NC(C)=O)cc1N(CCOC(C)=O)CCOC(C)=O`, 5; as for `OCC(O)C1OC(c2ccco2)OC(CO)C1O` (configuration not stated), 5. `O=S(=O)(O)CCN1CCN(CCO)CC1` returned a GHS category of 5.

`CCCCCCCCCCCCCCCCCC(=O)OCCO` displayed a GHS category of 5. For `CCCCCCCCCCCCCCCCNP1(=S)OCc2cc([N+](=O)[O-])ccc2O1` (configuration not stated), the GHS category is 3. Consider `CCN(CC)CCC1=NC(=C2C=CC=CC2=O)NO1`, for which the GHS category is 5.

For `COc1ccc(C=Nc2ccccc2C(=O)O)cc1`, the GHS category was 4. To `CN(C)[C@@H]1C(O)=C(C(N)=O)C(=O)[C@@]2(O)C(O)=C3C(=O)c4c(O)ccc(Cl)c4[C@@H](O)[C@H]3C[C@@H]12` belongs 5; to `CCCCCCCCCCCCCCCCCC(=O)OCCOCCO`, 5; to `CC(C)N1C2CCC1CC(OC(=O)C(CO)c1ccccc1)C2` (configuration not stated), 4.

For the compound `O=c1[nH]c(=O)n([C@H]2O[C@H](CO)[C@@H](O)[C@@H]2O)cc1/C=C\Br`, the GHS category is listed as 5. As for `COC(=O)C(CCn1cnc2c(Cl)nc(N)nc21)C(=O)OC`, the figure is 5; as for `Fc1ccccc1C1c2cc3c(cc2CCN1c1ccccc1)OCO3` (configuration not stated), 4; as for `COC(Cn1cncn1)(OC)c1cc2ccccc2o1`, 4. As for `CC(C)(c1cc(Br)c(OCC(Br)CBr)c(Br)c1)c1cc(Br)c(OCC(Br)CBr)c(Br)c1` (configuration not stated), the figure is 5; as for `CCOC(=O)C1CCC(C(=O)OCC)CC1` (configuration not stated), 5; as for `COc1ccc2c(c1)CC[C@@H]1[C@@H]2CC[C@]2(C)C(=O)CC[C@@H]12`, 5.

The compound `CCCCCCC(C)C=O` (configuration not stated) displayed a GHS category of 5.

Take `Brc1cnc2[nH]ccc2c1`: the GHS category amounted to 5.

`CC(=O)Nc1c(I)c(C(=O)N[C@H]2C(O)O[C@H](CO)[C@@H](O)[C@@H]2O)c(I)c(N(C)C(C)=O)c1I` (some centres not stated) came in with a GHS category of 5. As for `O=C(O)C(=O)[C@@H](O)[C@H](O)[C@H](O)CO`, the figure is 5. To `CCCc1c(Cc2ccc(-c3ccccc3-c3nn[nH]n3)cc2)c(=O)nc2nc(CO)[nH]n12` belongs 4; to `c1ccc(Nc2ccc(NC3CCCCC3)cc2)cc1`, 5; to `CCCc1c(Cc2ccc(-c3ccccc3-c3nn[nH]n3)cc2)c(=S)nc2nc[nH]n12`, 4.

`CCCS(=O)(=O)Nc1ccc(F)c(C(=O)O)c1F` returned a GHS category of 5. To `C=C[Si]1(C)O[Si](C)(C=C)O[Si](C)(C=C)O[Si](C)(C=C)O1` (configuration not stated) belongs 5; to `CCOC(=O)CC(=O)N1CCSC1COc1ccccc1OC` (configuration not stated), 5. As for `COC(=O)CC#N`, the figure is 5.

The compound `Cc1c(C2=C(O)CC(C)(C)CC2=O)c2c(n1-c1ccccc1)CC(C)(C)CC2=O` came in with a GHS category of 5. As to `NC(=O)Oc1ccccc1C(=O)Oc1ccccc1`, the GHS category was 5. To `CCCC(=O)O[C@H]1[C@H](C)O[C@@H](O[C@H]2[C@H](N(C)C)[C@@H](O)[C@H](O[C@H]3[C@@H](CC=O)C[C@@H](C)[C@@H](O)/C=C/C=C/C[C@@H](C)OC(=O)C[C@@H](O)[C@@H]3OC)O[C@@H]2C)C[C@@]1(C)OC(=O)CC` belongs 5. To `CC(=O)Nc1ccc(Cc2ccccn2)c([N+](=O)[O-])c1` belongs 3; to `CN(C)C(=O)OC1N=C(c2ccccc2)c2cc(Cl)ccc2N(C)C1=O` (configuration not stated), 5; to `Cc1cccc(C)c1OP(=O)(Oc1cccc(OP(=O)(Oc2c(C)cccc2C)Oc2c(C)cccc2C)c1)Oc1c(C)cccc1C`, 5. As for `CN1C(=O)c2ccc3c4ccc5c6c(ccc(c7ccc(c2c37)C1=O)c64)C(=O)N(C)C5=O`, the figure is 5; as for `CC[C@H](C)C(=O)O[C@H]1C[C@@H](C)C=C2C=C[C@H](C)[C@H](CC[C@@H]3C[C@@H](O)CC(=O)O3)[C@H]21`, 5; as for `Nc1nc(C2CC2)nc(C(=O)O)c1Cl`, 5. `CCOC(=O)c1nn(-c2ccc(OC)cc2)c2c1CCN(c1ccc([N+](=O)[O-])cc1)C2=O` yielded a GHS category of 5. As for `Cc1cc(C)c(C(=O)P(=O)(c2ccccc2)c2ccccc2)c(C)c1`, the figure is 5; as for `COc1ccc(Cl)cc1C(=O)NCCc1ccc(S(=O)(=O)NC(=O)NC2CCCCC2)cc1`, 5. As for `CSCC[C@H](NC(=O)CCSC(=O)c1ccccc1)C(=O)O`, the figure is 5; as for `O=C(O)c1ccccc1N1C(=O)C(Cl)C1c1ccccc1` (configuration not stated), 4; as for `CC(C)c1cc(C(C)C)c(N=C=O)c(C(C)C)c1N=C=O`, 5. As for `C[C@@H]1CCN(C(=O)[C@H](CCCNC(=N)N)NS(=O)(=O)c2cccc3c2NC[C@H](C)C3)[C@@H](C(=O)O)C1`, the figure is 5; as for `C=COC(=O)CCCCC(C)(C)C`, 5. Regarding `COC(=O)[C@H]1[C@H]2C[C@@H]3c4[nH]c5cc(OC)ccc5c4CCN3C[C@H]2C[C@@H](OC(=O)/C=C/c2ccc(O)c(OC)c2)[C@@H]1OC`, the GHS category was found to be 5. In turn, `CCOCC(C)OC(C)=O` (configuration not stated) registered a GHS category of 5. To `O=C1CCCCCN1C(=O)NCCCCCCNC(=O)N1CCCCCC1=O` belongs 5. To `CC(C)(c1ccc(OCC2CO2)cc1)c1ccc(OCC2CO2)cc1` (configuration not stated) belongs 4. To `O=S(=O)(O)c1ccc2c(c1)Nc1cc3nc4ccc(S(=O)(=O)O)cc4nc3cc1N2` belongs 5. Consider `COC(=O)C(F)(F)C(F)(F)C(F)(F)OC(F)=C(F)F`, for which the GHS category amounted to 3.

As to `Cn1c(=O)oc2ccc(Cl)cc21`, the GHS category is recorded as 5. As for `Cn1c(CCCC(=O)O)nc2cc(N(CCCl)CCCl)ccc21`, the figure is 3. To `NS(=O)(=O)c1cc2c(cc1Cl)N=C(CSCc1ccccc1)NS2(=O)=O` belongs 5; to `Fc1ccc(N/C(=N/C2CCCCC2)c2ccccc2)cc1`, 5. To `O=C(O)c1cc(C(=O)O)cc([N+](=O)[O-])c1` belongs 5; to `CC(C)S`, 5; to `CC(=O)OC1CCC2CCCCC2C1` (configuration not stated), 5. `CN(C)CCn1nnnc1SCC1=C(C(=O)O)N2C(=O)[C@@H](NC(=O)Cc3csc(N)n3)[C@H]2SC1` displayed a GHS category of 5.
